Columns and labels:
[1] = test system: HIV-1Ba-L infected primary human astrocytes (HA); experiment: p24 antigen ELISA in HIV-infected primary human astrocytes (latency breaking and antiviral efficacy); assay type: cell-based; conditions: tested about 1 to about 10 μM, solution phase
Procedure: FIG. 11 represents an evaluation of the antiviral efficacy of an exemplary embodiment of the drug delivery system in suppressing p24 antigen levels in HIV-infected human astrocytes. The drug delivery system was added on the second day after HIV infection (HIV-1BaL) in equimolar concentration. Supernatants were evaluated on the third, fifth, and seventh day postinfection for p24 levels and were checked for its efficacy, along with its percentage cell viability, using MTT assay. […] Viral p24 protein in the culture supernatant was measured by enzyme-linked immunosorbent assay. Error bars indicate the standard deviation of triplicate data points and are representative of at least three experiments. Dotted lines represent the percentage cell viability; each point represents treatment period. […] NS=non-significant. MTT=3-(4,5-dimethylthiazol-2-yl)-2,5-diphenyltetrazolium bromide.
Latency-breaking and antiviral efficacy of the formulation was determined via quantification of p24 antigen in a primary human astrocytes (HA) infection model (Nair, M. et al., Nat Commun. 2013; 4:1707). […] The sustained-release ability of the finally assembled formulation ([MNP+tenofovir]2+vorinostat) was also evaluated over a treatment period of 5 days in the HA model. […]

human astrocytes (HAs) = test system: human astrocytes (HAs)
Procedure: In vitro cytotoxicity was assessed by MTT cell viability assay, using a CellTiter 96 Aqueous one-solution cell proliferation assay kit (catalog G3580; Promega, USA) (Nair, M. et al., Nat Commun. 2013; 4:1707). HAs were seeded in 96-well tissue plates at a density of 5×10^3 cells per well. […] Finally, approximately 100 μL stop solution (about 20% sodium dodecyl sulfate in about 50% dimethyl formamide) was added into each well, and absorbance was recorded at 550 nm by a microplate reader (Synergy HT; BioTek Instruments, Inc.).

`O=C(CCCCCCC(=O)Nc1ccccc1)NO` [vorinostat] was tested, and the “vorinostat concentration giving maximum p24 value (latency reversal)” value [1] was 1 µM and the “cytotoxicity of optimized vorinostat dose” value (human astrocytes (HAs)) was “nontoxic”.
